Experimental data published in US20260256747A1, “ARYL-TRIAZOLYL AND RELATED GPR84 ANTAGONISTS AND USES THEREOF” (Liminal BioSciences Limited, priority 2022, published 2026).

Tests used:
[1] = tested on: mouse dextran sodium sulfate-induced chronic inflammatory bowel disease model; settings: once-daily doses of 3 and 10 mg/kg; efficacy similar to sulfasalazine; cited from earlier work
human GPR84 receptor = biological target: T1, human GPR84 receptor (Homo sapiens, UniProt Q9NQS5); assay: Gαi biosensor BRET assay in HEK293 cells transfected with GPR84, stimulated with the GPR84 agonist ZQ-16; format: cell-based; settings: 200 nmol/L ZQ-16; for inhibition at 2 µM / inhibition at 10 µM: HEK293, single concentration; for inhibition at 2 µM: concentration class A = 2 μM; for inhibition at 10 µM: concentration class F = 10 μM
T1 construct: host or cells: HEK293 cells, transient transfection
Description: Background—The following assays can be used for determination of GPR84 activation in living HEK293 cells. The Gαi BRET biosensor (Gagnon et al., 2018; Gales et al., 2006. Nat Struct Mol Biol. 13, 778-86; Saulieres et al., 2012. Nat Chem Biol. 8, 622-30) allows to directly monitor GPR84-mediated activation of Gαi. The Gαi biosensor consists of a Rluc8-tagged Gαi2 subunit, a GFP10-tagged Gγ2 subunit, and an untagged GB1. Agonist stimulation and GPR84 activation triggers a physical separation between the RLuc8-Gαi donor and the GFP10-Gγ2 acceptor, resulting in a decrease in BRET signal whose amplitude is correlated to ligand efficacy (Gales et al., 2006). Moreover, signaling functions of GPCRs are tightly regulated by endocytosis, the targeting of receptors to endosomes and their sorting to lysosomes or recycling to the plasma membrane. The early endosomes (EEs) trafficking assay (Namkung et al., 2016. Nat Commun. 7, 12178) uses Rluc8-tagged GPR84 and Renilla GFP (rGFP) attached to the FYVE domain from human endofin/zinc finger FYVE domain-containing protein 16, which binds phosphatidylinositol 3-phosphate in EEs. Agonist stimulation of GPR84-Rluc8 leads to trafficking of the receptor to EEs, and ensuing increase of the donor concentration relative to the rGFP-FYVE acceptor anchored in the same cellular compartment, and thus results in an increase in BRET signal.
Plasmids—The cDNA clones for human GPR84 receptor, human Gαi2, Gβ1, and Gγ2 were obtained from the cDNA Resource Center (www.cdna.org). GFP10 (F64L, S147P, S202F and H231L variant of Aequorea victoria Green Fluorescent Protein) gBlocks gene fragments (Integrated DNA Technologies, IA) and linker were inserted in frame at the N-terminus of human Gγ2. Rluc8 (A^55T, Cl24A, S130A, K136R, A^143M, M185V, M253L, and S287L variant of the Renilla reniformis luciferase) gBlocks gene fragment was inserted with linkers in frame in between residues 91 and 92 of Gαi2 or at the C-terminus of GPR84. The FYVE domain from human endofin (residues Q739 to K806) attached in frame at the C terminus of a humanized Renilla GFP (rGFP), were synthesized as gBlocks gene fragments.
Bioluminescence Resonance Energy Transfer (BRET) Measurement-HEK293 cells were transfected with GPR84-Rluc8 and rGFP-FYVE for the EEs trafficking biosensor or with GPR84, Gαi2-Rluc8, GFP10-Gγ2, and Gβ1 for the Gαi biosensor. The following day, transiently transfected cells were seeded in 96-well white clear bottom microplates coated with poly-D-lysine and left in culture for 24 hours. Cells were washed once with Tyrode's buffer (140 mmol/L NaCl, 1 mmol/L CaCl2, 2.7 mmol/L KCl, 0.49 mmol/L MgCl2, 0.37 mmol/L NaH2PO4, 5.6 mmol/L glucose, 12 mmol/L NaHCO3, and 25 mmol/L HEPES, pH 7.5) before performing assays in Tyrode's buffer. Test compounds were incubated with cells for 5 (Gai) or 15 (EEs) minutes at 37° C. before addition of 200 nmol/L of the GPR84 agonist ZQ-16 (2-(Hexylthio)-6-hydroxy-4 (3H)-pyrimidinone) for 5 minutes at room temperature (Gai) or 30 minutes at 37° C. (EEs). The Rluc8 substrate coelenterazine 400A (Prolume, Lakeside, AZ) was added at a final concentration of 5 μmol/L and BRET readings were collected using an Infinite M1000 microplate reader (Tecan, Morrisville, NC). BRET2 readings between Rluc8 and GFP10 or rGFP were collected by sequential integration of the signals detected in the 370 to 450 nm (Rluc8) and 510 to 540 nm (GFP10, rGFP) windows. The BRET signal was calculated as the ratio of light emitted by acceptor (GFP10, rGFP) over the light emitted by donor (Rluc8). The values were corrected to net BRET by subtracting the background BRET signal obtained in cells transfected with Rluc8 constructs alone. Ligand-promoted net BRET values were calculated by subtracting vehicle-induced net BRET from ligand-induced net BRET.

T1 sequence (Q9NQS5 whole entry): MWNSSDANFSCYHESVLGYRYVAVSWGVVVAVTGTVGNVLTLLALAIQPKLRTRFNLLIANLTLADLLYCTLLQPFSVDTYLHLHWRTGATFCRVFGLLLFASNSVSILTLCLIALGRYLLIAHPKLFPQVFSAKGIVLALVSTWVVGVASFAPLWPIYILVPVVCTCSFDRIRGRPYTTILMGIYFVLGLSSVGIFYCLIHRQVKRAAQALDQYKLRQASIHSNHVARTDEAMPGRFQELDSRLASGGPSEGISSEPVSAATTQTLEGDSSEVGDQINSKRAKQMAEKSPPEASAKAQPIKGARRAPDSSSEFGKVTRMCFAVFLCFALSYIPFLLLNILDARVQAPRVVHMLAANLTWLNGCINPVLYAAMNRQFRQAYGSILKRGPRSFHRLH

| SMILES | IC50 (human GPR84 receptor) | inhibition at 10 µM (human GPR84 receptor) | also measured |
| --- | --- | --- | --- |
| O=c1nc(OC[C@@H]2COCCO2)cc2n1CCc1cc(C#CC3CC3)ccc1-2 [GLPG1205] | – | – | disease activity index score [1]: reduced; neutrophil infiltration [1]: reduced |
| OC1CC2(C1)CN(CC#Cc1cnc(-c3cn(CC4OCC5(CC5)CO4)nn3)c(OC3CC3)c1)C2 (stereo not shown) [Compound I-22] | ≤ 300 nM | – | inhibition at 2 µM (human GPR84 receptor): > 75% |
| O=C(Cn1cc(-c2ncc(C#CC3(O)CC3)cc2OC2CC2)nn1)N1CCCC1 [Compound I-250] | – | > 75% | – |
| CCN(CC)c1cc(N2CC(C)(CO)C2)ccc1-c1cn(CC2OCC3(CC3)CO2)nn1 [Compound I-147] | – | > 75% | – |
| Cc1ccc(C#CC2CC2)cc1C(F)(F)c1cn(CC2OCC3(CC3)CO2)nn1 [Compound I-264] | – | – | inhibition at 2 µM (human GPR84 receptor): > 75% |
| Cc1cc(C#CC2CC2)ccc1-c1cn(Cc2cnco2)nn1 [Compound I-33] | – | ≤ 25% | – |
| Cc1cc(C#CCN2CC(C)(C)C2)cnc1-c1nnn(CC2OCC(C)(C)CO2)n1 [Compound I-111] | 1000 to 3000 nM | > 75% | – |
| Clc1cc(N2CCN(Cc3ccccn3)CC2)cnc1-c1cncn1CC1OCC2(CC2)CO1 [Compound I-214] | – | 50 to 75% | – |
| CN(C)c1cc(N2CC3(COC3)C2)ccc1-c1cn(CC2OCC(C)(C)CO2)cn1 [Compound I-45, 2-(1-((5,5-dimethyl-1,3-dioxan-2-yl)methyl)-1H-imidazol-4-yl)-N,N-dimethyl-5-(2-oxa-6-azaspiro[3.3]heptan-6-yl)aniline] | 1000 to 3000 nM | > 75% | – |
| CC1(C)COC(Cn2cc(-c3ncc(C#CC4(O)CC4)cc3OC3CC3)nn2)OC1 [Compound I-34] | ≤ 300 nM | – | inhibition at 2 µM (human GPR84 receptor): > 75% |
| FC1(F)CC12CN(CC#Cc1cnc(-c3cn(CC4OCC5(CC5)CO4)nn3)c(OC3CC3)c1)C2 [Compound I-16] | ≤ 300 nM | – | inhibition at 2 µM (human GPR84 receptor): > 75% |
| c1nc(-c2cn(CC3OCC4(CC4)CO3)nn2)c(OC2CC2)cc1N1CC2(COC2)C1 [Compound I-20] | – | > 75% | – |
| Cc1ccc(C#CC2CC2)cc1C(F)(F)c1cn(CC(=O)N(C)C)nn1 [Compound I-263] | – | – | inhibition at 2 µM (human GPR84 receptor): 25 to 50% |
| CN(C)c1cc(C#CC2(O)CC2)ccc1-c1cn(CC2OCC(C)(C)CO2)nn1 [Compound I-28] | ≤ 300 nM | – | inhibition at 2 µM (human GPR84 receptor): > 75% |
| CN(C)C(=O)Cn1cnc(-c2ccc(N3CC(C)(CO)C3)cc2N(C)C)c1 [Compound I-47] | – | 50 to 75% | – |
| Clc1cc(N2CCN(Cc3ccccn3)CC2)cnc1-c1cn(CC2OCC3(CC3)CO2)cn1 [Compound I-212] | – | 50 to 75% | – |

| SMILES | IC50 (human GPR84 receptor) | inhibition at 10 µM (human GPR84 receptor) | also measured |
| --- | --- | --- | --- |
| CCc1cc(C#CCNS(C)(=O)=O)ccc1-c1cn(CC2OCC(C)(C)CO2)nn1 [Compound I-1, N-(3-(4-(1-((5,5-dimethyl-1,3-dioxan-2-yl)methyl)-1H-1,2,3-triazol-4-yl)-3-ethylphenyl)prop-2-ynyl)methanesulfonamide] | 300 to 1000 nM | > 75% | – |
| NC(=O)c1cnc(-c2cn(CC3OCC4(CC4)CO3)nn2)c(OC2CC2)c1 [Compound I-204] | – | 50 to 75% | – |
| CN1CCN(C(=O)Cn2cc(-c3ncc(C#CC4CC4)cc3OC3CC3)nn2)CC1 [Compound I-266] | – | 25 to 50% | – |
| Cc1cc(C#CC2CC2)ccc1-c1nnc(-c2cn(CC(=O)N(C)C)nn2)o1 [Compound I-259] | – | ≤ 25% | – |
| CC1(C)COC(Cn2ncc(C#Cc3ccncc3)n2)OC1 [Compound I-43] | – | ≤ 25% | – |
| CC1(C)COC(Cn2cc(-c3ncc(C#CCNC4COC4)cc3OC3CC3)nn2)OC1 [Compound I-21] | ≤ 300 nM | – | inhibition at 2 µM (human GPR84 receptor): > 75% |
| CC1(C)CN(CC#Cc2cnc(-c3cn(CC4OCC5(CC5)CO4)nn3)c(CC3CC3)c2)C1 [Compound I-118] | ≤ 300 nM | – | inhibition at 2 µM (human GPR84 receptor): > 75% |
| c1ncc(-c2cnc(-c3cn(CC4OCC5(CC5)CO4)nn3)c(OC3CC3)c2)[nH]1 [Compound I-228] | ≤ 300 nM | – | inhibition at 2 µM (human GPR84 receptor): > 75% |
| CC1(C)COC(Cn2cc(-c3ncc(C#CCNS(C)(=O)=O)cc3OC3CC3)nn2)OC1 [Compound I-36] | ≤ 300 nM | – | inhibition at 2 µM (human GPR84 receptor): > 75% |
| CN(C)c1cc(N2CC3(CC(O)C3)C2)ccc1-c1cn(CC2OCC3(CC3)CO2)nn1 (stereo not shown) [Compound I-7, 2-(4-(1-(5,7-dioxaspiro[2.5]octan-6-ylmethyl)-1H-1,2,3-triazol-4-yl)-3-(dimethylamino)phenyl)-2-azaspir[3.3]heptan-6-ol] | – | > 75% | – |
| OC1CC2(C1)CN(c1cnc(-c3cn(CC4OCC5(CC5)CO4)nn3)c(OC3CC3)c1)C2 (stereo not shown) [Compound I-31] | ≤ 300 nM | > 75% | – |
| Cc1ccc(C#CC2CC2)cc1C(F)(F)c1cn(CC2CCCCO2)nn1 (stereo not shown) [Compound I-99] | – | – | inhibition at 2 µM (human GPR84 receptor): 50 to 75% |
| CC(C)(O)C#Cc1cnc(-c2cn(CC3OCC(C)(C)CO3)nn2)c(OC2CC2)c1 [Compound I-8] | 300 to 1000 nM | > 75% | – |
| CC1(C)COC(Cn2cc(-c3ncc(C(=O)NCc4cnccn4)cc3OC3CC3)nn2)OC1 [Compound I-10] | – | ≤ 25% | – |
| CN(c1cn(CC2OCC(C)(C)CO2)nn1)c1cc(C#N)ccc1Cl [Compound I-159] | – | 25 to 50% | – |
| CN(C)C(=O)c1cnc(-c2cn(CC3OCC4(CC4)CO3)nn2)c(OC2CC2)c1 [Compound I-61] | – | 25 to 50% | – |

Continued, in another order:

| IC50 (human GPR84 receptor) | inhibition at 10 µM (human GPR84 receptor) | SMILES | also measured |
| --- | --- | --- | --- |
| – | 50 to 75% | O=C(Cn1cc(-c2ncc(C#CC3CC3)cc2OC2CC2)nn1)N1C[C@@H](O)[C@H](O)C1 [Compound I-246] | – |
| – | 25 to 50% | Fc1ccc(C#CC2CC2)cc1-c1nnc(-c2cn(CC3OCC4(CC4)CO3)nn2)o1 [Compound I-258] | – |
| – | 25 to 50% | O=C1OC(c2ccc(C#CC3CC3)cc2)CN1CC1CCCCO1 (stereo not shown) [Compound I-65] | – |
| – | > 75% | CC1(C)COC(Cn2cc(Cc3cc(C#CC4CC4)ccc3C(F)(F)F)nn2)OC1 [Compound I-58] | – |
| 1000 to 3000 nM | > 75% | CC1(C)COC(Cn2cc(Cc3cc(C#CC4CC4)ccc3Cl)nn2)OC1 [Compound I-136] | – |
| – | 50 to 75% | Cc1ccc(C#CC2CC2)cc1-c1nnc(-c2cn(CC3OCC4(CC4)CO3)nn2)o1 [Compound I-255] | – |
| – | ≤ 25% | CC1(C)COC(Cn2cc(C#Cc3ccc(C4CC4)cc3)nn2)OC1 [Compound I-29] | – |
| 300 to 1000 nM | > 75% | O=C(Cn1cc(-c2ncc(C#CC3CC3)cc2OC2CC2)nn1)N1CCCC1 [Compound I-64] | – |
| 300 to 1000 nM | – | C(#Cc1ccc(-c2cn(CC3OCC4(CC4)CO3)nn2)c(C2CC2)c1)COC1CC1 [Compound I-4] | inhibition at 2 µM (human GPR84 receptor): > 75% |
| 300 to 1000 nM | – | C(#CC1CC1)c1cnc(-c2cnn(CC3OCC4(CC4)CO3)c2)c(OC2CC2)c1 [Compound I-218] | inhibition at 2 µM (human GPR84 receptor): > 75% |
| 1000 to 3000 nM | > 75% | O=C(Cn1cc(-c2c(OC3CC3)cc(C#CC3CC3)c[n+]2[O-])nn1)N1CCCC1 [Compound I-253] | – |
| 1000 to 3000 nM | > 75% | O=C(Cn1cc(-c2ncc(C#CC3CC3)cc2OC2CC2)nn1)N1CC[C@H](O)C1 [Compound I-244] | – |
